Consider two molecules from patent US20100087475A1, “PHARMACEUTICAL COMPOUNDS” (Biovali Laboratories International (Barbados) S.R.L., priority 2008, published 2010).

Structures are written as SMILES.

One assay deals with T1, VMAT-2 (Rattus norvegicus, UniProt Q01827).
T1 construct: from tissue; host or cells: rat brain, 6 mm coronal slice incorporating the striatum, homogenate
Description: [3H] Dihydrotetrabenazine binding assay for VMAT-2 (Assay B). The settings on record: [3H] dihydrotetrabenazine 5 nM, rat brain homogenate, competition binding. From the text:
Screen for VMAT-2 binding activity using a [^3H] Dihydrotetrabenazine binding Assay
Dihydrotetrabenazine is a very potent and selective inhibitor of VMAT-2, and binds with high affinity (nM range) to this vesicular transporter. [^3H] Dihydrotetrabenazine has been successfully used for many years as a radioligand to label VMAT-2 in human, bovine and rodent brain (e.g. Scherman et al. J. Neurochem. 50, 1131-1136 (1988); Near et al. Mol. Pharmacol. 30, 252-257 (1986); Kilbourn et al. Eur. J. Pharmacol. 278, 249-252 (1995); and Zucker et al. Life Sci. 69, 2311-2317 (2001)).
Charles River CD-1 rats were euthanized by decapitation and the brains dissected free and placed in ice cold PBS. The chilled brain was placed in a coronal brain matrix (Activational Systems, Inc) with 1 mm intervals. Single edge razor blades were inserted such that a 6 mm slice incorporating the striatum was removed. The tissue was weighed and placed in an ice-cold hand homogenizer, 10 volumes of KBS-EDTA (137 mM KCl, 3 mM NaCl, 8 mM K2HPO4, 1.5 mM NaH2PO4, 1 mM EDTA, pH 8.0) were added and the tissue homogenized with 10 strokes (maintaining on ice). Aliquots were placed into 500 μl microfuge tubes and then stored at −80° C. for later assays. A fresh aliquot was taken for protein assay. Protein concentrations were determined using BCA Protein Assay (Pierce Chemical) with bovine serum albumin as the standard. For VMAT2 assay, aliquots were thawed and placed on ice, and diluted with KBS-EDTA for a final protein concentration of 1 mg/ml.
Whatman GF/C filters (Acros) were presoaked with PBS/0.1% polyethylenimine at room temperature and then placed on a 48 place cell harvester (Brandel). Harvester was loaded with labeled tubes (12×75 mm) in the test tube rack. Into the tubes were placed 10 μl of the compound dilutions to their respective triplicate tubes and 1 μl of 10 mM TBZ added to the tubes used for non-specific binding measurements. Into each tube was then placed 0.5 ml of a 10 nM [^3H] dihydrotetrabenazine (DTBZ) dilution (American Radiolabeled Chemicals) in KBS-EDTA, the tubes were vortexed, and then 0.5 ml of the 1 mg/ml rat forebrain tissue homogenate solution was added into all tubes. Each tube was vortexed briefly and then incubated at room temperature for 30 minute.
Final concentrations of samples were 500 μg protein, 5 nM [3H]DTBZ; 10 μM TBZ (for nonspecific tubes) in 1 ml total volume. […] Filter circles were placed in scintillation vials and 10 ml of Universol (ICN) was added, samples incubated overnight and then counted on a Packard Tri-Carb 1600 scintillation counter.
Competition binding isotherms were analyzed with the use of computer-assisted nonlinear curve-fitting (LIGAND program) using both one and two site models.

A further assay has as its target T2, Adrenergic α2B Receptor (Homo sapiens, UniProt P18089).
T2 construct: expressed in transfected cells; host or cells: CHO-K1 cells
T2 sequence (P18089 1-450): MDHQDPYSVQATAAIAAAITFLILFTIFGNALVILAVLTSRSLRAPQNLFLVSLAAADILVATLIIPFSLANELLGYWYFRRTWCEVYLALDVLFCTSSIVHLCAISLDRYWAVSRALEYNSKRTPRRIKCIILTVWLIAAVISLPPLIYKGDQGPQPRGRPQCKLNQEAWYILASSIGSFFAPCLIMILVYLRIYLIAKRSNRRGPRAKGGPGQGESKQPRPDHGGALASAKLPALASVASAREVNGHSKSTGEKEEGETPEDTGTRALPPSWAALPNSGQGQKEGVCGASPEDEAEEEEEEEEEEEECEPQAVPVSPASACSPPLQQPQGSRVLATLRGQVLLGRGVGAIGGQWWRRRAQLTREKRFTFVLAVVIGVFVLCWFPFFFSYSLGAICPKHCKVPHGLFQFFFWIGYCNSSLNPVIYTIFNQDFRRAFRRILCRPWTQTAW
Briefly: Radioligand binding, [3H] Rauwolscine. The settings on record: compound at 10 μM. How it is done: (§1) Compounds of the invention were subjected to specific binding assays to test their ability to bind to the receptors and transporter proteins described below.
(b) Adrenergic α2B Receptor:
• Reference: S. Uhlen et al., Eur. J. Pharmacol., 343 (1): 93-1-01 (1998) • Source: Human recombinant CHO-K1 cells • Ligand: 2.5 nM [3H]

The next assay deals with T3, Dopamine D2L Receptor (Homo sapiens, UniProt P14416).
T3 construct: expressed in transfected cells; host or cells: CHO cells
T3 sequence (P14416 whole entry): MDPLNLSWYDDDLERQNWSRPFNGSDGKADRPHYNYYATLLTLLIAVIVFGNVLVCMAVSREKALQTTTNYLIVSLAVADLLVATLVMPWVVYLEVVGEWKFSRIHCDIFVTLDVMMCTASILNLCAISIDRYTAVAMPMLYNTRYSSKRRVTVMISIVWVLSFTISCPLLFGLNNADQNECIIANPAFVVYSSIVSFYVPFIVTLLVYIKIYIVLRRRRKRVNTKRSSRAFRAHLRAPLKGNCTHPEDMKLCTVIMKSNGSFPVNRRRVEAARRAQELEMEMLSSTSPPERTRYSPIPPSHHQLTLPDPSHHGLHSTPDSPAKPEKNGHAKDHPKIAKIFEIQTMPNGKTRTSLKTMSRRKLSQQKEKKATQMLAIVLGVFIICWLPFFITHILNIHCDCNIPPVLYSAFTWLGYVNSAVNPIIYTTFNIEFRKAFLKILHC
Description: Radioligand binding, [3H] Spiperone. The settings on record: compound at 10 μM. How it is done:
as §1
(e) Dopamine D2L Receptor:
(§2) • Reference: Grandy et al., Proc. Natl. Acad. Sci. USA, 86:9762-9766 (1989) • Source: Human recombinant CHO cells • Ligand: 0.16 nM [^3H]

The target in another assay is T4, Dopamine D2S Receptor (Homo sapiens, UniProt P14416).
T4 construct: expressed in transfected cells; host or cells: CHO cells
T4 sequence (P14416 1-414 isoform P14416-2): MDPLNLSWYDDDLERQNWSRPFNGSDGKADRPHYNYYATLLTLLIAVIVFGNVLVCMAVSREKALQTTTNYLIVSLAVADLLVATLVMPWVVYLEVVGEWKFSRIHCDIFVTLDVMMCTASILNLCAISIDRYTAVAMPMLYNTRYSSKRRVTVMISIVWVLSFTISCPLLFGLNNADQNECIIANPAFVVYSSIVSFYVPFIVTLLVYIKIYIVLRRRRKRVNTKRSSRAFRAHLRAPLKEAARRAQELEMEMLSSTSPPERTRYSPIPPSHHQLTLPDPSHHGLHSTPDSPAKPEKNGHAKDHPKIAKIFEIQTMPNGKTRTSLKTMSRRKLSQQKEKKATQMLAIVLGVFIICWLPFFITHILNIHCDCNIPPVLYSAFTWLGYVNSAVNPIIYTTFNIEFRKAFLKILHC
Description: Radioligand binding, [3H] Spiperone. The settings on record: compound at 10 μM. The method, then: as §1
(f) Dopamine D2S Receptor:
as §2

For the next assay, the target named is T5, Dopamine D4.2 Receptor (Homo sapiens, UniProt P21917, DEL265-296).
T5 construct: expressed in transfected cells; host or cells: CHO-K1 cells
T5 sequence (P21917 with tags, fused parts or gaps DEL265-296): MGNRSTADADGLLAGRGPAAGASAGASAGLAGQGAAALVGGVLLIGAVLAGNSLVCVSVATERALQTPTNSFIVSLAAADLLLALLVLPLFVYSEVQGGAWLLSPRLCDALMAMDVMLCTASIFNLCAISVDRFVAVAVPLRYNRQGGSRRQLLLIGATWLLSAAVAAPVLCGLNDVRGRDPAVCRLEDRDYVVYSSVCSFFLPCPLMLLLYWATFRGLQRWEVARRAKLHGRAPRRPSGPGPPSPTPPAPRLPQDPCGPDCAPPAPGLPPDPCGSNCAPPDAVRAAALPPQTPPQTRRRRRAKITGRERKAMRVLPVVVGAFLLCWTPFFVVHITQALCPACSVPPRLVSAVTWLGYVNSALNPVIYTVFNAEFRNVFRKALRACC
Briefly: Radioligand binding, [3H] Spiperone. The following applies: compound at 10 μM. The method, then:
as §1
(h) Dopamine D4.2 Receptor:
• Reference: Van Tol et al., Nature, 350:610-614 (1991) • Source: Human recombinant CHO-K1 cells • Ligand: 0.5 nM [^3H]

The next assay has as its target T6, Sigma σ1 Receptor (Homo sapiens, UniProt Q99720).
T6 construct: Source: Human jurkat cells; endogenous in cells; host or cells: Jurkat cells
Description: Radioligand binding, [3H] Haloperidol, jurkat cells. The settings on record: compound at 10 μM. The method, then:
as §1
• Reference: Ganaphthy et al., Pharmacol. Exp. Ther., 289:251-260, (1999) • Source: Human jurkat cells • Ligand: 8 nM [3H]

T1 sequence (Q01827 whole entry): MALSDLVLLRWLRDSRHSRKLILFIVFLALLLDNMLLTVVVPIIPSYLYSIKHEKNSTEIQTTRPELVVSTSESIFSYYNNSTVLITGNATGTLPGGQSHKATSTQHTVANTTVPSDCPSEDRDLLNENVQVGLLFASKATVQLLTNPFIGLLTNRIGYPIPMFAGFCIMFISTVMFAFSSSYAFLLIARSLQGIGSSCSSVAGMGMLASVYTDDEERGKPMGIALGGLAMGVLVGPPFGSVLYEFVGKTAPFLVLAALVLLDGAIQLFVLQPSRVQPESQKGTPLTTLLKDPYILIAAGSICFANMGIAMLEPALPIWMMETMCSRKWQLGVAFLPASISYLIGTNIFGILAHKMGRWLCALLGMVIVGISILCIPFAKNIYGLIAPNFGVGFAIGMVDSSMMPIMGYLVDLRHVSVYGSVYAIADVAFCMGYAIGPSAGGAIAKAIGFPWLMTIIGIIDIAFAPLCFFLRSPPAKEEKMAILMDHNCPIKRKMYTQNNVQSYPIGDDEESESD
T6 sequence (Q99720 whole entry): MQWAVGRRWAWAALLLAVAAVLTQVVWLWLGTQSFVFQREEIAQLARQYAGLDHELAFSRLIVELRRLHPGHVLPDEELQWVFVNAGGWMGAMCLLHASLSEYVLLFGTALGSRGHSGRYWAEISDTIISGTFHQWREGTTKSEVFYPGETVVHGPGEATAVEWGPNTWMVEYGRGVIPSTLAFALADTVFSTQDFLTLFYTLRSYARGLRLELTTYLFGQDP

Consider `COc1cc2c(cc1O)[C@@H]1C[C@@H](O)[C@H](CC(C)C)CN1CC2` (single isomer, unassigned) [(+)-10-desmethyl-γ-dihydrotetrabenazine], for which, on VMAT-2, the Bmax is 0.174 ± 0.035 fmol/µg and the affinity corresponds to a Ki of 0.451 µM. For the same molecule, at Adrenergic α2B Receptor, the “% inhibition, (b) α2B Receptor” value stood at 21%. In addition, the “% inhibition, (e) D2L Receptor” value at Dopamine D2L Receptor is recorded as 54%. Moreover, at Dopamine D2S Receptor, the “% inhibition, (f) D2S Receptor” value worked out at 63%. For the same molecule, on Dopamine D4.2 Receptor, the “% inhibition, (h) D4.2 Receptor” value is reported as 55%. Also, the “% inhibition, (m) σ1 Receptor” value at Sigma σ1 Receptor is 83%.
At VMAT-2, `COc1cc2c(cc1O)[C@@H]1C[C@@H](O)[C@H](CC(C)C)CN1CC2` (single isomer, unassigned) [(−)-10-desmethyl-γ-dihydrotetrabenazine] registered a Bmax of 0.101 ± 0.009 fmol/µg and an inhibitory constant (Ki) of 0.00182 µM. Moreover, on Adrenergic α2B Receptor, the “% inhibition, (b) α2B Receptor” value was 44%. Moreover, the “% inhibition, (e) D2L Receptor” value at Dopamine D2L Receptor came out at 98%. Also, the “% inhibition, (f) D2S Receptor” value at Dopamine D2S Receptor was found to be 98%. Besides, the “% inhibition, (h) D4.2 Receptor” value on Dopamine D4.2 Receptor was determined as 90%. Also, the “% inhibition, (m) σ1 Receptor” value on Sigma σ1 Receptor is given as 55%.

In general, Ki refers to the dissociation constant of the complex between target and ligand, obtained from inhibition or displacement. The low end stands for higher affinity, the high end for lower affinity.
